# Experimental data reported in PMC6835155, “Lessons from LIMK1 enzymology and their impact on inhibitor design” (Biochemical Journal, 2019).
# Read-outs that look alike come from different tables or passages of the source.
# Legend:
# LIMK1KD = molecular target: T1, LIMK1KD (Homo sapiens, UniProt P53667); test: Differential (dynamic) scanning fluorimetry (DSF) assay, LIMK1KD; assay type: binding; conditions: 2 µM LIMK1KD, compound 10 µM, single shot; for ΔTm at 10 µM: read-out: TM Shift LIMK1 (K)
# T1 construct: His6 (N, cleaved yes); made in house; host or cells: baculovirus; Sf9 for virus, TriEx insect cells for expression
# LIMK2KD = molecular target: T2, LIMK2KD (Homo sapiens, UniProt P53671); test: Differential (dynamic) scanning fluorimetry (DSF) assay, LIMK2KD; assay type: binding; conditions: for ΔTm at 10 µM: read-out: TM Shift LIMK2 (K)
# T2 construct: The cDNA coding for LIMK2 residues 330 to 632 was PCR amplified; His6 (N, cleaved yes); made in house; host or cells: baculovirus; Sf9 for virus, TriEx insect cells for expression
# [1] = LIMK2KD, compound 10 µM, single shot
# [2] = LIMK2KD, compound 10 µM, single shot, 10 µM
# T1 sequence (P53667 330-637): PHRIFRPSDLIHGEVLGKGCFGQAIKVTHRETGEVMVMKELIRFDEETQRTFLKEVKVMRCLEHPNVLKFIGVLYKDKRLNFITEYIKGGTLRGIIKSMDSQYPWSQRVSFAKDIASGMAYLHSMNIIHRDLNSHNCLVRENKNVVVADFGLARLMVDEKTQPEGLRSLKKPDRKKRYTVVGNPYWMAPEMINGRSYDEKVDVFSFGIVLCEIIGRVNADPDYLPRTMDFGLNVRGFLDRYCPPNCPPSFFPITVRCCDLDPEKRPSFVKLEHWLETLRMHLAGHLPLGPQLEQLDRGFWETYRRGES
# T2 sequence (P53671 330-632): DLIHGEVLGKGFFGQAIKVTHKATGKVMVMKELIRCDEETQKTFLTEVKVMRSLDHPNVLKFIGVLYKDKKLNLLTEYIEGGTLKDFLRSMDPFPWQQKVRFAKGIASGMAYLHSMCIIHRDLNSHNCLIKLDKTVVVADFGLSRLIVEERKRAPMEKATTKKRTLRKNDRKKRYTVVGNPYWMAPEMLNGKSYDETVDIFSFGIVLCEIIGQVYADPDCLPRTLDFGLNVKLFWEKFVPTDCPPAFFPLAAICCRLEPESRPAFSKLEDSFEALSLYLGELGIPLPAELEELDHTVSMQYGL
Structure (SMILES),TM Shift LIMK1 (K) (LIMK1KD),TM Shift LIMK2 (K) (LIMK2KD; [1]),ΔTm at 10 µM (LIMK1KD),ΔTm at 10 µM (LIMK2KD; [1]),also measured
CCN(CC)CCCC(C)Nc1nc(C)cc(Nc2ccc3nc(C)cc(N)c3c2)n1 (centres unmarked) [NSC 23766],0.0 K,-2.2 K,–,–,–
Nc1nc(N)c(N=O)c(OCC2CCCCC2)n1 [NU6027],–,–,0.8 °C,-0.9 °C,–
O=c1cc(N2CCOCC2)oc2c1ccc1ccccc12 [NU7026],-0.7 K,3.0 K,–,–,–
O=c1cc(N2CCOCC2)oc2c(-c3cccc4c3sc3ccccc34)cccc12 [NU7441 (KU-57788)],0.5 K,-0.9 K,–,–,–
Nc1ncnc2c1c(-c1cccc(OCc3ccccc3)c1)cn2C1CC(CN2CCCC2)C1 (centres unmarked) [NVP-ADW742],0.2 K,0.1 K,–,–,–
Nc1ncnc2c1c(-c1cccc(OCc3ccccc3)c1)cn2[C@H]1C[C@@H](CN2CCC2)C1 [NVP-AEW541],–,–,-0.2 °C,0.4 °C,–
CCN1CCN(c2ccc(Nc3cc(N(C)C(=O)Nc4c(Cl)c(OC)cc(OC)c4Cl)ncn3)cc2)CC1 [NVP-BGJ398],0.0 K,–,–,–,"TM Shift LIMK1 (K) (LIMK1KD; listed as BGJ398 (NVP-BGJ398)): 0.7 K; TM Shift LIMK2 (K) (LIMK2KD; [2]): -0.5 K; TM Shift LIMK2 (K) (LIMK2KD; LIMK2KD, compound 10 µM, single shot, listed as BGJ398 (NVP-BGJ398), 10 µM): 0.5 K"
Cc1ccc(C(=O)Nc2cccc(C(F)(F)F)c2)cc1Nc1nc(-c2cccnc2)nc2c1cnn2C [NVP-BHG712],-0.2 K,1.6 K,–,–,–
Fc1cc(-c2cccc3ncc(-c4cnn(C5CCNCC5)c4)nc23)cc(F)c1CN1CCOCC1 [NVP-BSK805 2HCl],1.5 K,0.2 K,–,–,–
Cn1cc(-c2ccc3ncc(Cc4ccc5ncccc5c4)n3n2)cn1 [NVP-BVU972],-0.5 K,2.9 K,–,–,–
"CCOc1cc2ncc(C#N)c(Nc3ccc(OCc4ccccn4)c(Cl)c3)c2cc1NC(=O)/C=C/CN(C)C [Neratinib (HKI-272), Neratinib]",–,–,0.2 °C,–,ΔTm at 10 µM (LIMK2KD): 1 °C
"Cc1cn(-c2cc(NC(=O)c3ccc(C)c(Nc4nccc(-c5cccnc5)n4)c3)cc(C(F)(F)F)c2)cn1 [Nilotinib (AMN-107), Nilotinib]",–,–,0.5 °C,0.4 °C,–
COC(=O)c1ccc2c(c1)NC(=O)/C2=C(\Nc1ccc(N(C)C(=O)CN2CCN(C)CC2)cc1)c1ccccc1 [Nintedanib],–,–,1.3 °C,0.3 °C,–
COc1cccc2cc(-c3nc([C@H]4CC[C@H](C(=O)O)CC4)n4ncnc(N)c34)[nH]c12 [OSI-027],–,–,2.2 °C,0.2 °C,–
C#Cc1cccc(Nc2ncnc3cc(OCCOC)c(OCCO)cc23)c1 [OSI-420],0.1 K,-0.1 K,–,–,–
O=C(Nc1ccc(OC(F)(F)F)cc1)c1sccc1NCc1ccnc2ccccc12 [OSI-930],–,–,0.7 °C,6.2 °C,–
NCC(=O)Nc1ccc(-n2nc(C(F)(F)F)cc2-c2ccc3c(ccc4ccccc43)c2)cc1 [OSU-03012 (AR-12)],-1.2 K,0.8 K,–,–,–
Cc1[nH]c(/C=C2\C(=O)Nc3ccccc32)c(C)c1CCC(=O)O [Orantinib],–,–,1.9 °C,–,"TM Shift LIMK1 (K) (LIMK1KD; listed as TSU-68 (SU6668, Orantinib)): 1.7 K; TM Shift LIMK2 (K) (LIMK2KD; [2]): 1.0 K; TM Shift LIMK2 (K) (LIMK2KD; LIMK2KD, compound 10 µM, single shot, listed as TSU-68 (SU6668, Orantinib), 10 µM): 2.8 K"
CN1CCC(c2c(O)cc(O)c3c(=O)cc(-c4ccccc4Cl)oc23)C1CO (centres unmarked) [P276-00],0.7 K,1.3 K,–,–,–
COc1cccc(-c2cc(=O)c3ccccc3o2)c1N [PD98059],-0.8 K,-0.3 K,–,–,–
